The values below come from US4602025A, “Aromatase inhibitors” (Eli Lilly and Company, priority 1984, dated 1986).

SMILES strings stand for the structures.

In one test the target is T1, aromatase (Rattus norvegicus, UniProt P22443).
T1 sequence (P22443 1-508): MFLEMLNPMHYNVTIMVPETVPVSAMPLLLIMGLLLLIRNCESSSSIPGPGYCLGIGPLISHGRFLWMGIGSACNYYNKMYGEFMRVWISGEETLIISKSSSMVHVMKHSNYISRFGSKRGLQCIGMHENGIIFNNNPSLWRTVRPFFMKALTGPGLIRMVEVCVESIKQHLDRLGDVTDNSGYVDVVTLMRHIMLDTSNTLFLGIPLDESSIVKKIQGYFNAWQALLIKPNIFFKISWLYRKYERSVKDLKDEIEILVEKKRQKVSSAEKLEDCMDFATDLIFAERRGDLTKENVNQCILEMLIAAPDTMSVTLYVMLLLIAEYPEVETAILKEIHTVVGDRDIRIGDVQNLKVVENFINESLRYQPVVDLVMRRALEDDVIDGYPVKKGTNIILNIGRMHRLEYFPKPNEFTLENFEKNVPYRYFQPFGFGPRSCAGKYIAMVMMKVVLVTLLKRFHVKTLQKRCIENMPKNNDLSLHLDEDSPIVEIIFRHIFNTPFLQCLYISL
The experiment in a line: biochemical. The following applies: rat ovarian microsomes; substrate (androstenedione) concentration 0.1 μM; inhibitors tested between 0.005 and 10 μM.

A further test has as its system breast cancer. Particulars: known aromatase inhibitors; Cancer Research, Vol. 42, Suppl. 8:3261s (1982); cited from earlier work.

Experimental for aromatase: In this test system, ovarian microsomes are obtained from rats treated with pregnant mares serum gonadotropin. Test compounds are added to reaction vials containing 0.1 μM 4-androstene-3,17-dione, 100,000 dpm 1,2[^3 H]-androstenedione, the microsomes and a NADPH generating system.

Take `Clc1ccc(C(c2ccc(Cl)cc2)(c2ccns2)n2cncn2)cc1` [Example 7, 1-[Bis(4-chlorophenyl)-5-isothiazolemethyl]-1H-1,2,4-triazole]: a half-maximal response at aromatase (EC50) required 51 nM. Take `CCC1(c2ccc(N)cc2)CCC(=O)NC1=O` (stereo not shown) [aminoglutethimide]: the “effect in treatment of breast cancer” value with breast cancer is listed as “beneficial effect”. With `C[C@]12C=CC(=O)C=C1CC[C@@H]1[C@@H]2CC[C@]2(C)OC(=O)CC[C@@H]12` [testolactone], in the test on breast cancer, the “effect in treatment of breast cancer” value is listed as “beneficial effect”.

On to `c1ccc(C(c2ccccc2)(c2ccns2)n2cncn2)cc1` [Example 2, 5-(Diphenyl-1H-1,2,4-triazol-1-ylmethyl)-isothiazole], for which the midpoint of the response at aromatase, the EC50, lay at 257 nM.
